Data on 1 compound can be found in patent US20250177291A1, “HYPOTONIC GEL-FORMING FORMULATIONS WITH ENHANCED RHEOLOGICAL PROPERTIES” (The Johns Hopkins University, priority 2021, published 2025).

A short description of this data set: Rheology: max tack force and adhesion of 16% F127 gels with additives. The note with it: 0.2-1% glycerin added to 16% w/v F127, 37° C., vs no additive. It counts as physicochemical. As to the method:
An Anton Paar cone and plate rheometer (model MCR 302) with PP25 probe were used to measure the max tack force and the adhesion. The probe was placed in contact with the sample, and then moved at a controlled rate vertically away from the sample to measure the normal force. The peak force on the curve is considered the max tack force, while the adhesion is the area under the force curve. Samples (200 μL) were transferred to the rheometer sample holder using a Drummond Wiretrol 200 μL wire plunger pipette. The samples were equilibrated between the probe and sample holder with a 1 mm gap for 60 s at the specified temperature. A total of 100 points were measured at 60 s intervals with ramp linear mode (initial was set as −0.005 mm/s and the final was set as −0.5 mm/s). If not specified, n=3-6 per each sample group were measured and each sample were prepared individually. The final data was exported from the Antron Parr RheoCompass. The max tack force and the adhesion were calculated with GraphPad Prism 9. For the temperature ramp viscosity experiment, the loading gap was set to 0.3 mm. […] The raw data with temperature (° C.) and viscosity (mPa*s) measurements were exported from the Anton Parr RheoCompass software and analyzed/plotted with GraphPad Prism 9. […]

Take `OCC(O)CO` [glycerin]: the “adhesion of the F127 gels” value is given as “no measurable effect” and the “max tack force of the F127 gels” value was “no measurable effect”.
